Assay results taken from patent US20230226089A1, “METHODS AND COMPOSITIONS FOR TREATING DISEASES ASSOCIATED WITH SENESCENCE” (Atropos Therapeutics, Inc., priority 2019, published 2023).

Experiments:
HGPS fibroblasts = assay: Senescent cells (ATRX foci vs nuclear area) in progeria patient fibroblasts; type: cell-based, human
Procedure: Normal diploid fibroblasts (NDF) and fibroblasts from a patient with premature aging syndrome (HGPS) were used to model human skin and to determine the effect of calcitriol on senescence in these cells. Calcitrol, a synthetic version of Vitamin D3, can reverse some symptoms of progeria. To assess the effect of calcitrol on senescence NDF and HGPS fibroblasts were cultured and treated with 0.5 μM calcitriol for up to 10 days. Cells were then stained for SA-β-gal. FIG. 11A and FIG. 11B show representative images of SA-β-gal negative and positive cells respectively. […] This experiment was repeated at least three times using different passages, a representative similarly passaged experiment is shown. […] The horizontal line demarcates the 90th percentile in ATRX foci number, a stringent definition of the senescent state. The vertical line demarcates the 70th percentile of nuclear area. Cells in the upper right quadrant are senescent (ATRX^highNV^large). […]
The natural extracts were also tested on fibroblast cells as described in Example 4. NDF and HGPS fibroblasts were treated with the natural product extracts for 7 days and then assessed for ATRX foci number, cell size and cell number, as indicated in the experimental design in FIG. 19. […] The data shown is representative of at least two different experiments for each mixture analyzed at multiple doses and multiple times.

LS8817^TetONFMDM2 cells = assay: SA-β-gal positive cells in LS8817 TetON FLAG-MDM2 cells; type: cell-based
Procedure: The ability of tipifarnib to induce senescence was confirmed in the LS8817^TetONFMDM2 cells used in Example 2. LS8817^TetONFMDM2 cells were treated with either doxycycline alone for 8 days (DOX, black), doxycycline for three days followed by […] of 10 μg/ml doxycycline and 0.2 μM palbociclib (PD+DOX, Brown), or doxycycline for two days followed by three days of doxycycline and palbociclib followed by five days of doxycycline+palbociclib+0.1 μM tipifarnib (PD+DOX->tipi, green). ATRX foci and nuclear size were evaluated as describe previously. […] ATRX foci are shown in green, and DAPI staining in blue. […] The cells treated with 3 days of doxycycline and palbociclib followed by 5 days of tipifarnib had SA-β-gal in about 60% of cells compared to the cells treated with doxycycline and palbociclib for 8 days which had SA-β-gal in less than 10% of cells. Treatment with tipifarnib caused a greater than 6-fold increase in the number of senescent cells.

## C=C1/C(=C\C=C2/CCC[C@]3(C)[C@@H]([C@H](C)CCCC(C)(C)O)CC[C@@H]23)C[C@@H](O)C[C@@H]1O [calcitriol]
HGPS fibroblasts; 0.5 μM calcitriol up to 10 days
  accumulation of senescent cells (ATRX foci number, nuclear size distribution): decreased the accumulation of senescent cells
HGPS fibroblasts; HGPS cells, treated 7 days, about 10% without treatment
  percentage of senescent cells (ATRX high, large nuclear area quadrant): about 0%

## CC(=O)c1c(C)c2cnc(Nc3ccc(N4CCNCC4)cn3)nc2n(C2CCCC2)c1=O [palbociclib]
LS8817^TetONFMDM2 cells; doxycycline and palbociclib for 8 days
  cells positive for SA-β-gal: less than 10%
LS8817^TetONFMDM2 cells; palbociclib alone (without doxycycline)
  cells SA-β-gal positive: about 80%

## Cn1cncc1[C@@](N)(c1ccc(Cl)cc1)c1ccc2c(c1)c(-c1cccc(Cl)c1)cc(=O)n2C [tipifarnib]
LS8817^TetONFMDM2 cells; 3 days doxycycline and palbociclib followed by 5 days tipifarnib
  cells positive for SA-β-gal: about 60%
LS8817^TetONFMDM2 cells; tipifarnib added vs doxycycline and palbociclib 8 days
  increase in the number of senescent cells: greater than 6 fold
